Laboratory results published in PubChem BioAssay AID602176 (NMMLSC, 2012).
Activity calls are given as the source filed them. No rule for the calls is given here.

Biological target: Botulinum neurotoxin type A (Clostridium botulinum (strain Hall / ATCC 3502 / NCTC 13319 / Type A)) (UniProt P0DPI1)
Test: Botulinum neurotoxin type A light chain protease inhibitors, multiplex microsphere cleavage, dose response confirmation (AID 602176)
Conditions: multiplex microsphere protease substrate cleavage, flow cytometry

Sequence of Botulinum neurotoxin type A (Clostridium botulinum (strain Hall / ATCC 3502 / NCTC 13319 / Type A)) (P0DPI1 whole entry, looked up): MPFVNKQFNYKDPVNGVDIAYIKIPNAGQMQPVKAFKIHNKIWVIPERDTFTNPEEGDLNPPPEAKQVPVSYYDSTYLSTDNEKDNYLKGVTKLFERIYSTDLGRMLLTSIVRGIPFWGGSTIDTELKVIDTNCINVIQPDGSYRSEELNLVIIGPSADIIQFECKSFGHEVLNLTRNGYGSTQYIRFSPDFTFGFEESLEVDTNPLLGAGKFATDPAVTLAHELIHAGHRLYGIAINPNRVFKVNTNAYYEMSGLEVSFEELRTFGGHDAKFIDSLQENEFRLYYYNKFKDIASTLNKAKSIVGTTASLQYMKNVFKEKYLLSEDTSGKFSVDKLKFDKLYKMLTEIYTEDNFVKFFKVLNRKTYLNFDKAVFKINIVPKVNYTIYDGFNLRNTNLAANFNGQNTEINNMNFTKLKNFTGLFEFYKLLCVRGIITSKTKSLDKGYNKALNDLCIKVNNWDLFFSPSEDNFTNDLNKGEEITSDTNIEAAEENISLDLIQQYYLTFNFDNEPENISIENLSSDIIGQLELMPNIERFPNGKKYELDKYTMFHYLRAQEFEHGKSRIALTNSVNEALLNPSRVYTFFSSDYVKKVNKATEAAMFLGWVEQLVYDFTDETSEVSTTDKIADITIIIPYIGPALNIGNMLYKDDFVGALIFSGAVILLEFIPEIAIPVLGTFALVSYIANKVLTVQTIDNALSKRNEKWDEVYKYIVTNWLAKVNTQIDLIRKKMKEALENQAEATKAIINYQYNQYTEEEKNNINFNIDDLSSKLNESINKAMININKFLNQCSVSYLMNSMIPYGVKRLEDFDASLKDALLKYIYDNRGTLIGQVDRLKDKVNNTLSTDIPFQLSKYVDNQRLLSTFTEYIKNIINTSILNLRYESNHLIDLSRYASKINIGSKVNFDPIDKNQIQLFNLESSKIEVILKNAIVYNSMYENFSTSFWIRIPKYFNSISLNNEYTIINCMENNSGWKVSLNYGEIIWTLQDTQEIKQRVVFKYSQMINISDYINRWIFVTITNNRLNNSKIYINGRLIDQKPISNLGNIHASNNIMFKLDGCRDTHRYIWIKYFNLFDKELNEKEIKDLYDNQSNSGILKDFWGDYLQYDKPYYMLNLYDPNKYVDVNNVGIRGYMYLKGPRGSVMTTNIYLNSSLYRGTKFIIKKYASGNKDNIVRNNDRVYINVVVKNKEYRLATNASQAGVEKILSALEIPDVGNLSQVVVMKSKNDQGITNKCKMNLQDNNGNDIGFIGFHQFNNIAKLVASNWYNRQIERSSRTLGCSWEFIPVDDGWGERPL

Oc1[nH]c(N=C2N=c3ccccc3=N2)c2ccccc12
EC50: > 20 µM (inactive)
